US9526680B2, “Method for searching for malodor control agent, malodor control agent, and malodor control method” (Kao Corporation, priority 2010, dated 2016)

Tests used:
OR2W1 = target: T1, OR2W1 (Homo sapiens, UniProt Q9Y3N9); assay: Luciferase reporter gene assay, OR2W1 expressed in HEK293 cells; assay type: cell-based; conditions: for Inhibition ratio of OR2W1 response: response to hexanoic acid, test substance added together with hexanoic acid, HEK293
T1 construct: expressed in transfected cells; host or cells: HEK293
T1 sequence (Q9Y3N9 1-320): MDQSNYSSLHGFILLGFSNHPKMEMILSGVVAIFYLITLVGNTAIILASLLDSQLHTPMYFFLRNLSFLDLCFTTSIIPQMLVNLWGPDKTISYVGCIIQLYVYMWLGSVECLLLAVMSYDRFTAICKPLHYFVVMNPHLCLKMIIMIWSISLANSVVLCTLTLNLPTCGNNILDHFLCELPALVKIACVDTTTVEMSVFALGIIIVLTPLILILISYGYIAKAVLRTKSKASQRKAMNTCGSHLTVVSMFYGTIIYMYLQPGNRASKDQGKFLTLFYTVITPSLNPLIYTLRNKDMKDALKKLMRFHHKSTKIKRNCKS
Procedure: (§1) Cloning of human olfactory receptors was performed based on the sequence information registered in GenBank, through PCR with human genomic DNA female (G1521: Promega) as a template. Each of the genes amplified through PCR was inserted into a pENTR vector (Invitrogen) according to an instruction manual. Then, the gene-inserted vector was digested with NotI and AscI, and the obtained fragments were inserted into NotI and AscI sites located downstream of the Flag-Rho tag sequence in the pME18S vector.
(§2) Each of the 350 types of human olfactory receptors was expressed in HEK293 cells. A reaction solution having a composition shown in Table 2 was prepared on a clean bench, and left to stand for 15 minutes. The solution was dispensed to each well of a 96-well plate (BD). Subsequently, […] cells (100 μL, 3×10^5 cells/cm^2) were seeded in each well and cultured for 24 hours in an incubator at 37° C. and under 5% CO2 conditions.
(§3) The olfactory receptor expressed in HEK293 cell was conjugated with cell-intrinsic Gas to activate adenylate cyclase, and thereby the level of intracellular cAMP was increased. For the measurement of the response to odor in this study, the luciferase reporter gene assay was used, in which an increase in the amount of intracellular cAMP was monitored by using the emission value originating from firefly luciferase gene (fluc2P-CRE-hygro) as an indicator. Furthermore, a gene product obtained by fusing renilla luciferase gene in the downstream of CMV promoter (hRluc-CMV) was simultaneously introduced, and this was used as an internal standard for correcting an error in the transgenesis efficiency or the number of cells. The medium was removed from the culture prepared in the above-described section 3) by using a Pipetman, and 75 μl of a solution containing an odor substance (1 mM hexanoic acid or 300 μM nonanoic acid) prepared in CD293 medium (Invitrogen) was added thereto. The cells were cultured for 4 hours in a CO2 incubator, and the luciferase gene was sufficiently expressed in the cells. For the measurement of luciferase activity, the measurement was carried out by using a Dual-Glo™ luciferase assay system (Promega) according to the operation manual of the product. A value calculated by dividing the emission value, derived from a firefly luciferase induced by the stimulation with an odor substance, by the emission value in cells that were not-stimulated with an odor substance, was designated as a fold increase, and used as an index of response intensity.
(§4) OR2W1, OR10A6, OR51E1, OR51I2, and OR51L1 were respectively expressed in HEK293 cells by the same method as that used in Example 1, and a luciferase assay was carried out. In the luciferase assay, hexanoic acid was used as the odorous substance, and test substances were added together with hexanoic acid. The response of the olfactory receptors to hexanoic acid was measured, and a decrease in the receptor response to the addition of test substances was evaluated.
(§5) The inhibition ratios of the receptor response to test substances were calculated as follows. The emission value (Y) obtained from the cells in which the same receptors were introduced but no odor stimulation was conducted, was subtracted from the emission value derived from firefly luciferase (X) induced by odor stimulation with hexanoic acid alone. Similarly, the emission value (Y) obtained from the cells in which no odor stimulation was conducted, was subtracted from the emission value (Z) caused by stimulation with a mixture of hexanoic acid and a test substance. By the following calculation formula, the inhibitory activity of the test substance to receptor response was calculated based on the increment of the emission value (X−Y) caused by stimulation of hexanoic acid alone. Multiple independent experiments were performed in duplicate, and the average of each experiment was obtained. Inhibition ratio (%)={1−(Z−Y)/(X−Y)}×100 […]

OR51I2 = target: T2, OR51I2 (Homo sapiens, UniProt Q9H344); assay: Luciferase reporter gene assay, OR51I2 expressed in HEK293 cells; assay type: cell-based; conditions: for Inhibition ratio of OR51I2 response: response to hexanoic acid, test substance added together with hexanoic acid, HEK293
T2 construct: expressed in transfected cells; host or cells: HEK293
T2 sequence (Q9H344 1-312): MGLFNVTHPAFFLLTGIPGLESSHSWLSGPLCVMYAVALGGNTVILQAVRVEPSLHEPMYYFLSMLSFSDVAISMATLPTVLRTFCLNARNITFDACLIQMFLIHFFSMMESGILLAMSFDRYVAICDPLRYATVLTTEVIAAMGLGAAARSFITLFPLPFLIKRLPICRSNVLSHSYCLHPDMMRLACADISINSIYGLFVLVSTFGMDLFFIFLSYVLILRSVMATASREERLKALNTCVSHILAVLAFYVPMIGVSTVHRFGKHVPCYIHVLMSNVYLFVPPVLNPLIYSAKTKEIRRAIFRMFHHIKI
Procedure: as §1, §2, §3, §4, §5

[1] = Sensory evaluation test of hexanoic acid odor inhibition; assay type: in vivo; conditions: for Intensity of odor: hexanoic acid odor, malodor alone rated as 5, 0 to 10 points, test substance diluted 100 times with propylene glycol, three panelists; for Inhibition of hexanoic acid odor (in words): sensory test, test substance diluted 100 times with propylene glycol (FIG. 5, Table 4)
Procedure: Cotton balls were introduced into a glass bottle (Hakuyo Glass Co., Ltd. No. 11, capacity 110 ml), and hexanoic acid diluted 100 times with propylene glycol, nonanoic acid diluted 10 times with propylene glycol, or isovaleric acid diluted 1000 times with propylene glycol, as a malodor, and a test substance were added dropwise in an amount of […] to the cotton balls. The glass bottle was left to stand overnight at room temperature, and the odor molecules were sufficiently volatilized in the glass bottle. A sensory evaluation test was carried out by a panel of three panelists (5 panelists for isovaleric acid), and while the intensity of odor in the case of adding dropwise the malodor alone was rated as 5, the intensity of the malodor in the case of incorporating a test substance was evaluated on the basis of a system of 20 grades from 0 point to 10 points (0.5 points per grade).
Regarding the test substance, florhydral (Givaudan SA), bourgeonal (Givaudan SA), hydroxycitronellal (Givaudan SA, International Flavors & Fragrances, Inc., and the like), 4-isopropylcyclohexanecarbaldehyde (synthesized according to a method described in JP-A-2-188549), 4-(2-methoxyphenyl)-2-methyl-2-butanol (JP-A-9-111281), florosa (Givaudan SA), isocyclocitral (Givaudan SA, International Flavors & Fragrances, Inc., and the like), tripral (International Flavors & Fragrances, Inc.), and Pollenal II (Kao Corp.), which had been diluted 100 times with propylene glycol, were used for hexanoic acid; florhydral that had been diluted 10 times with propylene glycol was used for nonanoic acid; and florhydral that had been diluted 1000 times with propylene glycol was used for isovaleric acid.

OR51E1 = target: T3, OR51E1 (Homo sapiens, UniProt Q8TCB6); assay: Luciferase reporter gene assay, OR51E1 expressed in HEK293 cells; assay type: cell-based; conditions: for Inhibition ratio of OR51E1 response: response to hexanoic acid, test substance added together with hexanoic acid, HEK293
T3 construct: expressed in transfected cells; host or cells: HEK293
T3 sequence (Q8TCB6 1-318): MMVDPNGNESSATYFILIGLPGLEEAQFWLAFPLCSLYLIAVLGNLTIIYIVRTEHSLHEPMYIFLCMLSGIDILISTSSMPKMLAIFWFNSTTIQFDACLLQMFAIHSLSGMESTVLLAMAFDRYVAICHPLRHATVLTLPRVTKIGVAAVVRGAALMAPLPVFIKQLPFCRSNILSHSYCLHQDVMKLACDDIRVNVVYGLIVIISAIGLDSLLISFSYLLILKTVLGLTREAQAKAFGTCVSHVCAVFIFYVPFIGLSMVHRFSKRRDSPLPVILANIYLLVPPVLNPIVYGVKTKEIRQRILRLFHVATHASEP
Procedure: as §1, §2, §3, §4, §5

OR51L1 = target: T4, OR51L1 (Homo sapiens, UniProt Q8NGJ5); assay: Luciferase reporter gene assay, OR51L1 expressed in HEK293 cells; assay type: cell-based; conditions: for Inhibition ratio of OR51L1 response: response to hexanoic acid, test substance added together with hexanoic acid, HEK293
T4 construct: expressed in transfected cells; host or cells: HEK293
T4 sequence (Q8NGJ5 1-315): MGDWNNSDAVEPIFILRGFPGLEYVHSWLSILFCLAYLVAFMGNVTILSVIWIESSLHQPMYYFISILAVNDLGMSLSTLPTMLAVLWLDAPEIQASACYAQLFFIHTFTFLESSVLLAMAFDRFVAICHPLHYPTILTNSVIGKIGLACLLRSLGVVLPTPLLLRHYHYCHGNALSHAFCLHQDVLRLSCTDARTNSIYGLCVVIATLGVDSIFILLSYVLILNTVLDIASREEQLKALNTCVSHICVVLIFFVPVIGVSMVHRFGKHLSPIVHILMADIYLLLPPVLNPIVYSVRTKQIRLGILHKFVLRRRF
Procedure: as §1, §2, §3, §4, §5

[2] = fold increase of luciferase emission, 1 mM hexanoic acid or 300 μM nonanoic acid, or concentration series up to 1000 μM
[3] = 1 mM hexanoic acid, test substance 3, 10, 30, 100, 300 μM (FIG. 4)

| Inhibition ratio of OR2W1 response (OR2W1) | Inhibition ratio of OR51I2 response (OR51I2) | Inhibition ratio of OR51E1 response (OR51E1) | Structure (SMILES) | Intensity of odor [1] | Inhibition of hexanoic acid odor (in words) [1] | further results |
| --- | --- | --- | --- | --- | --- | --- |
| – | 2 (Inhibition ratio: 20% to 50%) | – | CC(C)C1CCC(C=O)CC1 (centres unmarked) [4-Isopropylcyclohexanecarbaldehyde, 4-isopropylcyclohexanecarbaldehyde] | 2.17 | inhibit the hexanoic acid odor | – |
| – | – | 2 (Inhibition ratio: 20% to 50%) | CC(C=O)C1CCCCC1 (centres unmarked) [Pollenal II, 2-cyclohexylpropanal] | 2.08 | inhibit the hexanoic acid odor | – |
| – | 2 (Inhibition ratio: 20% to 50%) | – | CC(C=O)Cc1ccc(C(C)C)cc1 (centres unmarked) [Cyclamen aldehyde, 3-(4-isopropylphenyl)-2-methylpropanal] | – | – | – |
| 1 (Inhibition ratio: 50% or higher) | – | – | CC1(C)CCCC2=C1CC(C=O)CC2 (centres unmarked) [Cyclemon A, 1,2,3,4,5,6,7,8-octahydro-8,8-dimethyl-2-naphthalenecarboxyaldehyde] | – | – | – |
| – | 2 (Inhibition ratio: 20% to 50%) | – | CC(C)C1CCC(C)(CO)CC1 (centres unmarked) [4-Isopropyl-1-methylcyclohexylmethanol, 4-isopropyl-1-methylcyclohexylmethanol] | – | – | – |

Second part, the compound before the results:

| Structure (SMILES) | Inhibition ratio of OR2W1 response (OR2W1) | Inhibition ratio of OR51I2 response (OR51I2) | Inhibition ratio of OR51E1 response (OR51E1) | Intensity of odor [1] | Inhibition of hexanoic acid odor (in words) [1] | further results |
| --- | --- | --- | --- | --- | --- | --- |
| CC(C=O)Cc1ccc(C(C)(C)C)cc1 (stereo not drawn) [Lilial, p-tert-butyl-α-methylhydrocinnamaldehyde] | 2 (Inhibition ratio: 20% to 50%) | 2 (Inhibition ratio: 20% to 50%) | – | – | – | – |
| Cc1cccc(CC(C)(C)CO)c1 [Majantol, 2,2-dimethyl-3-(3-methylphenyl)propanol] | 2 (Inhibition ratio: 20% to 50%) | – | – | – | – | – |
| COc1ccccc1CCC(C)(C)O [4-(2-Methoxyphenyl)-2-methyl-2-butanol, 4-(2-methoxyphenyl)-2-methyl-2-butanol] | 1 (Inhibition ratio: 50% or higher) | – | – | 3.88 | inhibit the hexanoic acid odor | – |
| CC(C)c1ccc(C=O)cc1 [Cuminaldehyde, 4-isopropylbenzaldehyde] | – | 2 (Inhibition ratio: 20% to 50%) | – | – | – | – |
| CC(C)=CCCC(C)CC=O (centres unmarked) [Citronellal, 3,7-dimethyl-6-octenal] | – | – | 2 (Inhibition ratio: 20% to 50%) | – | – | – |
| CC(C)Cc1ccc(CC(C)C=O)cc1 (centres unmarked) [Suzaral, 3-(4-isobutylphenyl)-2-methyl-propionaldehyde] | – | 2 (Inhibition ratio: 20% to 50%) | – | – | – | – |
| CC1=CC(C)C(C=O)CC1 (centres unmarked) [Tripral, 2,4-dimethyl-3-cyclohexane-1-carboxyaldehyde] | – | – | – | 2.00 | inhibit the hexanoic acid odor | Inhibition ratio of OR51L1 response (OR51L1): 2 (Inhibition ratio: 20% to 50%) |
| CC(C)CC(=O)O [isovaleric acid, reference compound] | – | – | – | – | – | Response of OR51E1 to the odor substance (OR51E1; [2]): concentration-dependent response; Response of OR51I2 to the odor substance (OR51I2; [2]): concentration-dependent response |
| CC(C)(C)c1ccc(CCC=O)cc1 [Bourgeonal, 3-(4-tert-butylphenyl)propanal] | 1 (Inhibition ratio: 50% or higher) | 1 (Inhibition ratio: 50% or higher) | 1 (Inhibition ratio: 50% or higher) | 3.13 | markedly inhibited | Inhibition of OR2W1 response to hexanoic acid (in words) (OR2W1; [3]): in a concentration-dependent manner; Inhibition of OR51E1 response to hexanoic acid (in words) (OR51E1; [3]): in a concentration-dependent manner; Inhibition of OR51L1 response to hexanoic acid (in words) (OR51L1; [3]): in a concentration-dependent manner; Inhibition ratio of OR51L1 response (OR51L1): 1 (Inhibition ratio: 50% or higher); Inhibition of OR51I2 response to hexanoic acid (in words) (OR51I2; [3]): in a concentration-dependent manner |
| COC(C)(C)CCCC(C)CC=O (centres unmarked) [Methoxycitronellal, 7-methoxy-3,7-dimethyloctanal] | – | 1 (Inhibition ratio: 50% or higher) | 1 (Inhibition ratio: 50% or higher) | – | – | Inhibition ratio of OR51L1 response (OR51L1): 1 (Inhibition ratio: 50% or higher) |
| CC(CC=O)CCCC(C)(C)O (centres unmarked) [Hydroxycitronellal, 3,7-dimethyl-7-hydroxyoctanal] | – | 2 (Inhibition ratio: 20% to 50%) | 2 (Inhibition ratio: 20% to 50%) | 2.25 | inhibit the hexanoic acid odor | Inhibition ratio of OR51L1 response (OR51L1): 2 (Inhibition ratio: 20% to 50%) |
